Experimental findings from article PMC9532558 (Acta Pharmaceutica Sinica. B, 2022) are described below.

In the assay the target is ATP6V0D1 (V-ATPase V0 domain subunit d1) (Homo sapiens, UniProt P61421). In words: SPR. The class given is binding.

Structures are written as SMILES.

ATP6V0D1 (V-ATPase V0 domain subunit d1), sequence (P61421 whole entry, the tested form may be a part): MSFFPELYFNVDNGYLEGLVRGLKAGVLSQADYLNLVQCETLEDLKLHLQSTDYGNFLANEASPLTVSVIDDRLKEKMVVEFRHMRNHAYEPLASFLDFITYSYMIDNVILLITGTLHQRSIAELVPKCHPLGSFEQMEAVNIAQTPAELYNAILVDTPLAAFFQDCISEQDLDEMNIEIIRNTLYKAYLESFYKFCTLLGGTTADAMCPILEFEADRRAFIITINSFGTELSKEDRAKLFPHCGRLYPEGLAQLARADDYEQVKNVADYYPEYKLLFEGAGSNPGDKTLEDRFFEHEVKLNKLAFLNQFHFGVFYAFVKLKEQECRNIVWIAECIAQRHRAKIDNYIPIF

As a reminder, the Kd is a measure of binding affinity in units of concentration. Higher therefore signals weaker binding. For `COc1cc2c(c(OC)c1OC)-c1c(cc(OC)c(OC)c1OC)C[C@](C)(O)[C@@H](C)C2` [SolA, Schisandrol A], the Kd was determined as 2000 nM.
